In patent US6743800B1, “Naphthyridine derivatives, processes for their preparation, their use and pharmaceutical compositions comprising them” (Aventis Pharma Deutschland GmbH, priority 1999, dated 2004):

Key:
[1] = target: T1, human vitronectin receptor αvβ3 (Homo sapiens, UniProt P05106+P06756); experiment: Kistrin binding assay (αvβ3 ELISA test, K/VnR); settings: inhibition of binding of kistrin to human vitronectin receptor αvβ3, ELISA
T1 construct: Human vitronectin receptor is obtained from the human placenta according to the method of Pytela et al; from tissue; host or cells: human placenta (alternative: 293 cells co-transfected with αv and β3 DNA)
Source text: The inhibition of the binding of kistrin to human vitronectin receptor (VnR) described below is a test method by which the antagonistic action of the compounds of the invention on the vitronectin receptor αvβ3 can be determined (αvβ3 ELISA Test; the test method is abbreviated as “K/VnR” in the listing of the test results).
Kistrin is purified according to the methods of Dennis et al., as described in Proc. Natl. Acad. Sci. USA 87 (1989) 2471 and Proteins: Structure, Function and Genetics 15 (1993) 312.
Purification of Human Vitronectin Receptor (αvβ3)
Human vitronectin receptor is obtained from the human placenta according to the method of Pytela et al., Methods Enzymol. 144 (1987) 475. Human vitronectin receptor αvβ3 can also be obtained from some cell lines (for example from 293 cells, a human embryonic kidney cell line) which are co-transfected with DNA sequences for both subunits αv and β3 of the vitronectin receptor. The subunits are extracted with octyl glycoside and then chromatographed through concanavalin A, heparin-Sepharose and S-300.
Murine monoclonal antibodies which are specific for the β3 subunits of the vitronectin receptor, are prepared according to the method of Newman et al., Blood, 1985, 227, or by a similar process. The rabbit Fab 2 anti-mouse Fc conjugate to horseradish peroxidase (anti-mouse Fc HRP) was obtained from Pel Freeze (Catalog No. 715 305-1).
The ability of substances to inhibit the binding of kistrin to the vitronectin receptor can be determined using an ELISA test. For this purpose, Nunc 96-well microtiter plates are coated with a solution of kistrin (0.002 mg/ml) according to the method of Dennis et al., as described in Proteins: Structure, Function and Genetics 15 (1993) 312. The plates are then washed twice with PBS/0.05% Tween-20 and blocked by incubating (60 min) with bovine serum albumin (BSA, 0.5%, RIA grade or better) in buffer solution (Tris-HCl (50 mM), NaCl (100 mM), MgCl2 (1 mM), CaCl2 (1 mM), MnCl2 (1 mM), pH 7). Solutions of known inhibitors and of the test substances are prepared in concentrations from 2×10^−12 to 2×10^−6 mol/l in assay buffer (BSA (0.5%, RIA grade or better); Tris-HCl (50 mM); NaCl (100 mM), MgCl2 (1 mM), CaCl2 (1 mM), MnCl2 (1 mM), pH 7). The blocked plates are emptied, and in each case 0.025 ml of this solution which contains a defined concentration (2×10^−12 to 2×10^−6 mol/l) either of a known inhibitor or of a test substance, are added to each well. 0.025 ml of a solution of the vitronectin receptor in assay buffer (0.03 mg/ml) is pipetted into each well of the plate and the plate is incubated at room temperature for 60-180 min on a shaker. In the meantime, a solution (6 ml/plate) of a murine monoclonal antibody specific for the β3 subunit of the vitronectin receptor is prepared in assay buffer (0.0015 mg/ml). A second rabbit antibody (0.001 ml of stock solution/6 ml of the murine monoclonal anti-β3 antibody solution) which is an anti-mouse Fc HRP antibody conjugate is added to this solution, and this mixture of murine anti-β3 antibody and rabbit anti-mouse Fc HRP antibody conjugate is incubated during the time of the receptor-inhibitor incubation. The test plates are washed four times with PBS solution which contains 0.05% Tween-20, and in each case 0.05 ml/well of the antibody mixture is pipetted into each well of the plate and incubated for 60-180 min. The plate is washed four times with PBS/0.05% Tween-20 and then developed with 0.05 ml/well of a PBS solution which contains 0.67 mg/ml of o-phenylenediamine and 0.012% of H2O2 . Alternatively to this, o-phenylenediamine can be employed in a buffer (pH 5) which contains Na3PO4 and citric acid. The color development is stopped using 1 N H2SO4 (0.05 ml/well). The absorption for each well is measured at 492-405 nm and the data are evaluated by standard methods.

[2] = target: 293 cells cotransfected with αv and β3 subunits of the vitronectin receptor αvβ3 (Homo sapiens, UniProt P05106+P06756); experiment: Vitronectin/293 cell test (inhibition of binding of 293 cells to human vitronectin); format: cell-based; settings: inhibition of binding of αvβ3-expressing 293 cells to human vitronectin; read-out: Vn/293 cell test IC50
Method: 2) Vitronectin/293 Cell Test
In this test the inhibition of binding of 293 cells to human vitronectin (Vn) by the compounds of the invention is determined (the test method is abbreviated as Vn/293 cell test in the listing of the test results).
Purification of Human Vitronectin
Human vitronectin was isolated from human plasma and purified by affinity chromatography according to the method of Yatohgo et al., Cell Structure and Function 23 (1988) 281.
293 cells, a human embryonic kidney cell line, which were cotransfected with DNA sequences for the αv and β3 subunits of the vitronectin receptor αvβ3, were selected for a high rate of expression (>500,000 αvβ3 receptors/cell) according to the FACS method. The selected cells were cultured and sorted again by means of FACS in order to obtain a stable cell line (15 D) with expression rates >1,000,000 copies of αvβ3 per cell.
A Linbro 96-well tissue culture plate with a flat bottom was coated overnight at 4° C. with human vitronectin (0.01 mg/ml, 0.05 ml/well) in phosphate-buffered saline solution (PBS) and then blocked with 0.5% strength BSA (bovine serum albumin). Solutions of the test substances from 10^−10 mol/l to 2×10^−3 mol/l in glucose-containing DMEM medium were prepared and 0.05 ml/well of the solution were added to the plate in each case. The cells which expressed high levels of αvβ3 (for example 15 D) were suspended in glucose-containing DMEM medium and the suspension was adjusted to a content of 25,000 cells/0.05 ml of medium. 0.05 ml of this cell suspension was added to each well and the plate was incubated at 37° C. for 90 min. The plate was washed 3 times with warm PBS in order to remove unbound cells. The bound cells were lyzed in citrate buffer (25 mM, pH 5.0) which contained 0.25% Triton X-100. The hexoseamidase substrate p-nitrophenyl-N-acetyl-β-D-glucosaminide was then added and the plate was incubated at 37° C. for 90 min. The reaction was stopped with a glycine (50 mM)/EDTA (5 mM) buffer (pH 10.4) and the absorption of each well was measured at 405 to 650 nm. The data were analyzed according to standard methods.

[3] = test system: bone resorption by osteoclasts; experiment: Pit Assay (osteoclast resorption test); format: cell-based; settings: inhibition of bone resorption
Source text: The inhibition of bone resorption by the compounds of the invention can be determined, for example, with the aid of an osteoclast resorption test (“Pit Assay”), for example analogously to WO-A-95/32710 which is incorporated herein by reference.

293 cells cotransfected with αv and β3 subunits of the vitronectin receptor αvβ3, sequence (P05106 whole entry): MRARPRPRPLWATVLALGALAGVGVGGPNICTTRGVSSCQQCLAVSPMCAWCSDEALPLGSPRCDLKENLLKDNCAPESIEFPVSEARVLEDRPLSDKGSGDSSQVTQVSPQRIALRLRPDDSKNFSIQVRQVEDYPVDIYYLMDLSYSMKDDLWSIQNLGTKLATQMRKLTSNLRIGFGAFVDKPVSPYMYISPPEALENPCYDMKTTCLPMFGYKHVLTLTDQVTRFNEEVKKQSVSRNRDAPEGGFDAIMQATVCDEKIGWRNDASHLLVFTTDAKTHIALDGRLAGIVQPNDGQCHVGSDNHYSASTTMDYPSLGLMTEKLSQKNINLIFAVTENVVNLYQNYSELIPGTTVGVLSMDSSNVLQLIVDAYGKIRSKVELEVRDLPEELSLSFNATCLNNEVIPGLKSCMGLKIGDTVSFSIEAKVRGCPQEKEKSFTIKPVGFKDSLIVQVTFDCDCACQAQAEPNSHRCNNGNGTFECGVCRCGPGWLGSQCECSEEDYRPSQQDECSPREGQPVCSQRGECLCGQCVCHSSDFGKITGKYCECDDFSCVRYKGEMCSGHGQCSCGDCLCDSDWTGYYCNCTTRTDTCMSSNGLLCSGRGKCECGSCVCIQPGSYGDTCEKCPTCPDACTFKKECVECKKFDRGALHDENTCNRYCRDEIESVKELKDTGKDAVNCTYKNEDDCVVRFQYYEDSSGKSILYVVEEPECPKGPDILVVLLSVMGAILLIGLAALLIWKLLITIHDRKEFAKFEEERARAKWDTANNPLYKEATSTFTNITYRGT
293 cells cotransfected with αv and β3 subunits of the vitronectin receptor αvβ3, sequence (P06756 whole entry): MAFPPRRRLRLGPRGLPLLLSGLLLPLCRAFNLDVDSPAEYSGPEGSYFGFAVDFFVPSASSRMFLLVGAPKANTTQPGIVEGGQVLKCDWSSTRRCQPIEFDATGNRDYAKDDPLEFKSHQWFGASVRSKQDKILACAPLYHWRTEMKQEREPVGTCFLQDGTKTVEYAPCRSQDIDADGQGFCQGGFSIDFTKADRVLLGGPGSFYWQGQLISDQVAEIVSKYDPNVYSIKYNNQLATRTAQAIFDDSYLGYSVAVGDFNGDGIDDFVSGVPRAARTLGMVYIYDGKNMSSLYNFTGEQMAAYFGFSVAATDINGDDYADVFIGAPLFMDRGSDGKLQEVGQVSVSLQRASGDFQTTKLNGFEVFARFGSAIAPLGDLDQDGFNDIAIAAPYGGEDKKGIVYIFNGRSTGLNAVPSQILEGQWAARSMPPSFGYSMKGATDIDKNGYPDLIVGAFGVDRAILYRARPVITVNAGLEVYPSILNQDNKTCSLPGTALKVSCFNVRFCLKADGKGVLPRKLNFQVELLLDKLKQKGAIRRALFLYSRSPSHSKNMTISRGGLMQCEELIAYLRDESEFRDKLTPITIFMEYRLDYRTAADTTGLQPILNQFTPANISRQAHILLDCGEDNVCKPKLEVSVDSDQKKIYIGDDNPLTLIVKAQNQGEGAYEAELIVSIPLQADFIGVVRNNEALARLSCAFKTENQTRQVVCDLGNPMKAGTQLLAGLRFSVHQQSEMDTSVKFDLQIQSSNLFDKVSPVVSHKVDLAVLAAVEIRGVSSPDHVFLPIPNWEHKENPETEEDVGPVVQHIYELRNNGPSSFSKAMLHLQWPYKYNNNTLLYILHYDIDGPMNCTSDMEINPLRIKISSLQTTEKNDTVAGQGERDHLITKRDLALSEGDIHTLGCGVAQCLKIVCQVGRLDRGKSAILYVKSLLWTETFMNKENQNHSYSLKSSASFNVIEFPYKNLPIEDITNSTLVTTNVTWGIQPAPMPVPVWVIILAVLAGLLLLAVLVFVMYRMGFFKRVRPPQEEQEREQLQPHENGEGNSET
T1 sequence (P06756 31-889 limits assumed): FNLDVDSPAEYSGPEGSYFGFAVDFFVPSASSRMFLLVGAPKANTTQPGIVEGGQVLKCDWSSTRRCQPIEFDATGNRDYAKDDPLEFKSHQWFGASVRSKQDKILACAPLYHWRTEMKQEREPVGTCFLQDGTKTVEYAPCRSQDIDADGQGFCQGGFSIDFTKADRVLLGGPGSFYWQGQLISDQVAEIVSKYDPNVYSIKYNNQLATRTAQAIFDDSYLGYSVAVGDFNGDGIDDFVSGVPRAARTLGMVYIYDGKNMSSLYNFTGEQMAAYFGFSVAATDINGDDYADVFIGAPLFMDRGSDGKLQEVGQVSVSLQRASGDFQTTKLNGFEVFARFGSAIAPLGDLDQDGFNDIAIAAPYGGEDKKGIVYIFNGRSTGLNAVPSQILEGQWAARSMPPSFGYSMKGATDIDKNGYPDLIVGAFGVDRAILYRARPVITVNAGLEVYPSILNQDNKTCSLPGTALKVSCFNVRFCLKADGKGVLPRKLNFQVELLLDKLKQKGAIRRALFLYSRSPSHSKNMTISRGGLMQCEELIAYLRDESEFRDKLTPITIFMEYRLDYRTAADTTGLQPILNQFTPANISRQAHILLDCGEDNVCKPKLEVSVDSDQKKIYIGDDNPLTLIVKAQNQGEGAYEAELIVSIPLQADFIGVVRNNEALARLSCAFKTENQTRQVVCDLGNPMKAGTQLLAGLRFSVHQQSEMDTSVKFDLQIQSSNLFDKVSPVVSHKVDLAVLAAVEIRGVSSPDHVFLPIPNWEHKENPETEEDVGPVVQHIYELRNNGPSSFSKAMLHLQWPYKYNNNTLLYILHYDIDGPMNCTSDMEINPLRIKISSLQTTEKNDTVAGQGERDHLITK
T1 sequence (P06756 891-1048 partner limits assumed): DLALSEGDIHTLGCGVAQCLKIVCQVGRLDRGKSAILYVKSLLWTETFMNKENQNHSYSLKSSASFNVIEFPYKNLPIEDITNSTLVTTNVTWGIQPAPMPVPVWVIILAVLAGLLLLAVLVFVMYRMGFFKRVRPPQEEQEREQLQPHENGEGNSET
T1 sequence (P05106 27-788): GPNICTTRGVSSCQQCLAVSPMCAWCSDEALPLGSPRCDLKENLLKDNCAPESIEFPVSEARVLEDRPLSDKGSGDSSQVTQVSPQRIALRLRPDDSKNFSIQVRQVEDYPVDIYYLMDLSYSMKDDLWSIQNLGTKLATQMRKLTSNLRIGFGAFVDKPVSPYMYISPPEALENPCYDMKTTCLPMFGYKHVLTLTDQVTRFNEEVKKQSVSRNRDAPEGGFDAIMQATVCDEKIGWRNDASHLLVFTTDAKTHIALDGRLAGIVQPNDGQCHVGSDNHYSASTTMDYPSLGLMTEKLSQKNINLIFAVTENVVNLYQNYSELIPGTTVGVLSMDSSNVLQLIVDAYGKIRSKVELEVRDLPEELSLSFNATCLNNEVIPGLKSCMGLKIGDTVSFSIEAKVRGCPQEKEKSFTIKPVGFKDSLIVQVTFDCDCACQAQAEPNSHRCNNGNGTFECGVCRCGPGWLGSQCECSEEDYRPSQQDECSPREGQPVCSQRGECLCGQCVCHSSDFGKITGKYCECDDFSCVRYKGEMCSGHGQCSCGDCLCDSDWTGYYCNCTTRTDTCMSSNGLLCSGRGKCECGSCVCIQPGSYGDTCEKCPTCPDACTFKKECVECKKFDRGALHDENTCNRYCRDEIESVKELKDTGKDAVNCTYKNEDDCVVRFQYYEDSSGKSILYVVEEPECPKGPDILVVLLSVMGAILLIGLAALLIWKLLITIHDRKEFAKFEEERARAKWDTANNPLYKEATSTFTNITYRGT

| SMILES | IC50 [1] [nM] | IC50 [2] [nM] | IC50 [3] [nM] |
| --- | --- | --- | --- |
| O=C(N[C@@H](Cn1cnc2c(N3CCC(c4ccc5c(n4)NCCC5)CC3)ncnc21)C(=O)O)OCc1ccccc1 [Example 1, (2S)-2-Benzyloxycarbonylamino-3-(6-(4-(5,6,7,8-tetrahydro-[1,8]naphthyridin-2-yl)-piperidin-1-yl)-purin-9-yl)-propionic acid] | 10 | 78 | – |
| O=C(O)[C@H](Cn1cnc2c(N3CCC(c4ccc5c(n4)NCCC5)CC3)ncnc21)NS(=O)(=O)c1cccc2ccccc12 [Example 4, (2S)-2-(Naphthalene-1-sulfonylamino)-3-(6-(4-(5,6,7,8-tetrahydro-[1,8]naphthyridin-2-yl)-piperidin-1-yl)-purin-9-yl)-propionic acid] | 6.4 | 24 | < 10 |
| O=C(O)[C@H](Cn1cnc2c(N3CCC(c4ccc5c(n4)NCCC5)CC3)ncnc21)NS(=O)(=O)c1ccc(C(F)(F)F)cc1 [Example 5, (2S)-3-(6-(4-(5,6,7,8-Tetrahydro-[1,8]naphthyridin-2-yl)-piperidin-1-yl)-purin-9-yl)-2-(4-trifluoromethylbenzenesulfonylamino)-propionic acid] | 5 | 22 | – |

The next lines start with the values.

| IC50 [1] [nM] | IC50 [2] [nM] | IC50 [3] [nM] | SMILES |
| --- | --- | --- | --- |
| 18 | 115 | – | CCCCS(=O)(=O)N[C@@H](Cn1cnc2c(N3CCC(c4ccc5c(n4)NCCC5)CC3)ncnc21)C(=O)O [Example 6, (2S)-2-(Butane-1-sulfonylamino)-3-(6-(4-(5,6,7,8-tetrahydro-[1,8]naphthyridin-2-yl)-piperidin-1-yl)-purin-9-yl)-propionic acid] |
| 4.8 | 23 | – | O=C(O)[C@H](Cn1cnc2c(N3CCC(c4ccc5c(n4)NCCC5)CC3)ncnc21)NS(=O)(=O)c1ccccc1 [Example 2, (2S)-2-Benzenesulfonylamino-3-(6-(4-(5,6,7,8-tetrahydro-[1,8]naphthyridin-2-yl)-piperidin-1-yl)-purin-9-yl)-propionic acid] |
| 5.1 | 15 | 0.3 | O=C(O)[C@H](Cn1cnc2c(N3CCC(c4ccc5c(n4)NCCC5)CC3)ncnc21)NS(=O)(=O)c1ccc(Cl)cc1 [Example 3, (2S)-2-(4-Chlorobenzenesulfonylamino)-3-(6-(4-(5,6,7,8-tetrahydro-[1,8]naphthyridin-2-yl)-piperidin-1-yl)-purin-9-yl)-propionic acid] |
